Patent US20200086049A1, “Kit For Treating or Relieving Pain at Incision Site Following Surgical Procedure” (GENEWEL CO., LTD., priority 2017, published 2020)

Assay: precipitation test for drug-containing mixture solutions
Type: physicochemical
Conditions: mixture solution containing crosslinked temperature-responsive viscous solution (DDK Gel: poloxamer and crosslinked alginate), FIG. 7
From the text: In FIG. 7, DDK Gel means a gel composed of poloxamer and crosslinked alginate.

precipitate formation | Molecule
sodium alginate was precipitated | gentamicin
formed a precipitate | CC(C)Cc1ccc(C(C)C(=O)O)cc1 (centres unmarked) [ibuprofen]
